Assay results reported in PMC12188386, “Selective CBP/EP300 Bromodomain Inhibitors: Novel Epigenetic Tools to Counter TNF-α-Driven Inflammation” (JACS Au, 2025).
pIC50, pKd: −log10 of the molar value. Read-outs that look alike come from different tables or passages of the source.

Columns and labels:
CBP-BRD [1] = target: CBP-BRD; design: method as in Pegg et al., 2017; Brooks et al., 2017; settings: SPR, ref Pegg et al., 2017, Brooks et al., read-out: Affinity to CBP-BRD, Kd; cited from earlier work
BRD4(1)-BRD = settings: cited from earlier work
kinetic solubility = format: physicochemical; settings: PBS pH 7.4, 37°C, 90 min; ± st. dev. between technical replicates
Procedure: Starting from an initial concentration of 100, 50 or 20 µM, a 2-fold serial dilution of the compound (10 mM stock in DMSO) was prepared in a mixture of ACN/Buffer (PBS, pH = 7.4) 2:8, with 1% DMSO. 350 µL was transferred to a 96-Well Plate (Greiner, UV-star) then UV absorption (240-400 nm, 10 nm steps) was measured. The absorption was blank-corrected and plotted against concentration. The wavelength (λ) providing the best fitting straight line […]
(§1) was used as the calibration curve. To obtain saturated solutions of the compounds of interest, in duplicates 4.4 µL of a 10 or 5 mM stock in DMSO was added to 436 µL Buffer (PBS, pH = 7.4), to give a final concentration of 100 or 50 µM. Samples were incubated on a shaker (500 rpm) at 37°C for 90 minutes and then filtered (Millex-GV 13 mm, 0.22 µm). 304 µL of the filtrate was mixed with 76 µL of acetonitrile on a dilution plate, from which 350 µL was transferred to a UV-plate and UV-absorption was read using a SpectraMax M5 (Molecular devices). The absorbance was blank-corrected and compared to the calibration curve to […]
(§2) solubility. The wavelengths used for the calibration curve are available in Table S4.
(§3) Based on the known density of 12.5 % CAPTISOL® solution (d = 1.05755 g/mL at 25 °C), the precise weight of the resulting solution and so the required amount of water by weight was calculated. The water was added portion wise with agitation, vortexing and sonication cycles in between additions. The saturated solutions were then filtered (Millex-GV 13 mm, 0.22 µm). In duplicates, aliquots of the filtrates were taken and diluted with blank 12.5 % CAPTISOL® water solution in either a 1:14 (higher sol. compounds) or 1:7 (lower sol. compounds) ratio, 350 µL was transferred to a 96-Well Plate (Greiner, UV-star) then UV absorption (240-400 nm, 10 nm steps) was measured using a SpectraMax M5 (Molecular devices). The absorption was blank-corrected, compared to the calibration curve obtained during the solubility measurement method above and finally corrected for the dilution ratio to obtain the compound concentration in the saturated 12.5 % CAPTISOL® solution. The calculated concentrations are available in Table S4.
(§4) BROMOscan™ assays (provided by Eurofins DiscoverX, US)1,2 […]
coli host derived from the BL21 strain. E. coli were grown to log-phase and infected with T7 phage from a frozen stock (multiplicity of infection = 0.4) and incubated with shaking at 32°C until lysis (90-150 minutes). The lysates were centrifuged (5,000 x g) and filtered (0.2µm) to remove cell debris. Streptavidin-coated magnetic beads were treated with biotinylated small molecule or acetylated peptide ligands for 30 minutes at room temperature to generate affinity resins for bromodomain assays. The liganded beads were blocked with excess biotin and washed with blocking buffer (SeaBlock (Pierce), 1 % BSA, 0.05 % Tween 20, 1 mM DTT) to remove unbound ligand and to reduce non specific phage binding. Binding reactions were assembled by combining bromodomains, liganded affinity beads, and test compounds (see […]
Sodium azide, 7.4 mM DTT). All reactions were performed in polypropylene 384-well plates in a final volume of 0.02 mL. The assay plates were incubated at room temperature with […]
20). The beads were then resuspended in elution buffer (1x PBS, 0.05% Tween 20, 2 µM non-

[2] = test system: TNF-α-induced cytokine expression in THP-1 cells; experiment: cytokine mRNA expression by RT-qPCR; format: cell-based, human; settings: 1 h co-treatment of THP-1 cells with 10 ng/mL TNF-α and 1 μM compound
Procedure: For cytokine expression determination, 5x10^5 THP-1 cells were plated on 12 well plates the day prior to treatment with 10 ng/mL recombinant human TNF -α (aa 77-233) protein (R&D systems, 10291 -TA) and compounds at a final concentration of 0.1 % DMSO. In all cases, total
RNA was extracted using the NucleoSpin® RNA kit (Machery -Nagel) and used for cDNA synthesis with the High -Capacity cDNA Reverse Transcription kit (Applied Biosystems). RT-qPCR reactions were performed using PowerSYBR™ green PCR Master Mix (Applied Biosystems) and a LightCycler® 480 (Roche). cDNA was denatured for 10 min at 95 °C followed by 40 cycles of 15 s at 95 °C and 1 min at 60 °C. Cp values were determined as the maximum of the second derivative and target gene expression was compared to that of hprt from the same sample using the 2-ΔCp method. Gene expression was then normalized to the average of the control samples from the same day, or all biological replicates. […]

[3] = test system: TNF-α-induced IL-8 secretion from THP-1 cells; experiment: cytokine protein measurement (LEGENDPlex); format: cell-based, human; settings: 10 ng/mL TNF-α, 1 μM compound
Procedure: For cytokine expression determination, 5x10^5 THP-1 cells were plated on 12 well plates the day prior to treatment with 10 ng/mL recombinant human TNF -α (aa 77-233) protein (R&D systems, 10291 -TA) and compounds at a final concentration of 0.1 % DMSO. In all cases, total […]
Cytokine protein measurements
THP-1 cells were plated and treated as for the quantitative RT -PCR, then the cell culture medium was harvested by pelleting the cells (300g, 3min) and taking the supernatant .
Cytokine protein concentrations were determined using the LEGENDPlexTM Human Inflammation Panel 1 (BioLegend) assay with 25 µL of culture medium following the manufacturer’s instructi ns. amp es were ana zed f w c t metr n an rtessa Biosciences), and data was analyzed using LEGENDPlex software (BioLegend).

MRC5 cells = experiment: viability assay (resazurin); format: cell-based; settings: three-day treatment, concentration resulting in 70 % viability
Procedure: MRC5 (2x10^3 cells/well) or THP-1 (8x10^3 cells/well) cells were plated onto 96 well plates and treated with compounds at a final DMSO concentration of 0.5 % (MRC5) or 0.1 % (THP-1).
After 3 days of treatment, resazurin (Acros Organics) was added at a final concentration of 86 μ and incu ated for 2h15 (MRC5) or 3 h (THP-1). Fluorescence (ex. 560 nm, em. 590 nm) was read using a SpectraMax M5 (Molecular devices). GI30 values were calculated as the compound concentration resulting in 70 % viability compared to DMSO treated controls using a nonlinear regression fit using GraphPad Prism with the following equation: (Y=Bottom + (100-Bottom)/(1+(IC50/X)^HillSlope)). […]
After 1.5 h, mice were injected with 10 µL of the prepared CAPTISOL […]
foodpad and also intraperitoneally (for i.p. injection, the 10 µL of CAPTISOL solution was diluted to a final volume of 100 µL using PBS). Organs were collected 5 h after TNF-α […]
LEGENDPlexTM assays (Mouse Pro-inflammatory Chemokine Panel and Mouse Inflammation Panel; Biolegend) were performed to monitor cytokine/chemokine expression. Briefly, popliteal LNs were collected and carefully disrupted in […] ice-cold phosphate buffer, minimizing cell rupture. The suspension was centrifuged at 1,500 rpm for 5 min, and the […]

[4] = concentration in saturated 12.5% CAPTISOL solution; format: physicochemical; settings: filtered 12.5 w/v% CAPTISOL in water, st. dev. between technical replicates (n=2)
Procedure: as §1, §2
Sample preparation in CAPTISOL® […]
as §3, with “lower solubility (2) compounds respectively in a 12.5 w/v% CAPTISOL® solution in water. In a precisely tared vial, required amounts of compounds and CAPTISOL® were weighed out as solids. Based” for “Based”
as §4
coli host derived from the BL21 strain. […]

[5] = test system: immune cell recruitment to the popliteal lymph node; experiment: TNF-α induced inflammation model, flow cytometry of pLN; format: in vivo, mouse; settings: mice, flow cytometry 5 h post-injection of rmTNF-α, vs control group
CBP-BRD [6] = settings: TR-FRET; ref Crawford et al., 2016; read-out: Affinity to CBP-BRD, IC50 (Published); cited from earlier work
CBP-BRD [7] = settings: ITC; ref Picaud et al., 2015; Popp et al., 2016; read-out: Affinity to CBP-BRD, Kd; cited from earlier work

CO[C@H]1CC[C@H](n2c([C@@H]3CCCC(=O)N3c3ccc(F)c(F)c3)nc3cc(-c4c(C)noc4C)ccc32)CC1 [CCS1477]
pKd (CBP-BRD [1]): 8.77 | Sel. over BRD4(1)-BRD (BRD4(1)-BRD; ref Pegg et al., 2017, Brooks et al.): 130 fold

CC(=O)N1CCc2c(c(Nc3ccc(-c4cnn(C)c4)cc3F)nn2[C@H]2CCOC2)C1 [GNE-272, reference compound]
Kin. Sol. (kinetic solubility): 75.1 ± 1.0 µM | TNF-α-induced expression of il1β, il8, mcp-1 and tnf-α (mRNA) [2]: inhibited expression to a greater extent than the less potent but more soluble inhibitor 5 | TNF-α-induced IL-8 protein secretion [3]: significantly reducing its TNF-α-induced secretion | GI30 (MRC5 cells): > 10000 nM | Conc. in 12.5% Captisol sol. [4]: 715 ± 12 µM | recruitment of lymphocytes (T and B cells), dendritic cells and neutrophils to the pLN [5]: significantly inhibited the recruitment of lymphocytes | pIC50 (CBP-BRD [6]): 7.70

CCC(=O)N1CCOc2c(cc(-c3ccc(OC)c(OC)c3)cc2OC[C@H]2CCCN(C)C2)C1 [I-CBP112]
pKd (CBP-BRD [7]): 6.82 | Sel. over BRD4(1)-BRD (BRD4(1)-BRD; ref Picaud et al., 2015, Popp et al., 2016): 37 fold
